# Reference: patent US20230165870A1, “6,8-dioxa-3-azabicyclo[3.2.l]Octane Carboxylic Acids And Their Derivatives For Use In The Treatment Of Inflammations” (MINERVA S.R.L., priority 2020, published 2023)
# Where a name gives a salt, the structure may show the parent alone.
# Key:
# Format in all cases: cell-based
# [1] = test system: human monocytes stimulated with LPS; assay: Production of IL-1β, TNF-α and IL-6 in human monocytes stimulated with LPS (Luminex multiplex assay); settings: 50 ng/ml LPS, MT8 10 or 30 µM, 18 hours
# Protocol: (§1) LipoPoliSaccharide (LPS) is an endotoxin that induces a strong immune reaction. In the presence of LPS, immune system cells such as monocytes and dendritic cells react by producing high amounts of inflammatory cytokines such as IL-1β, TNFα and IL-6. To test the ability of MT8 to modulate the production of these cytokines, human monocytes (isolated from buffy coat using anti-CD14 antibody) and human monocytes-derived dendritic cells (MDCs) were cultured at 10^6 cells/ml in complete medium and stimulated with 50 ng/ml of LPS, in the presence or absence of MT8 at a concentration of 10 or 30 µM. After 18 hours of incubation, the supernatants of both cell types were collected and the production of IL-1β, TNF-α, and IL-6 was evaluated by Luminex multiplex assay technology. […] In particular, MT8 was able to decrease the amount of IL-1β in a dose-dependent manner in both monocytes and dendritic cells. In the latter, the reduction recorded was over 50% (FIG. 1B), while in monocytes the reduction was about 17% (FIG. 1A). In any case, this reduction is statistically significant. Similar results were obtained regarding the production of TNF-α which, in the presence of MT8, is reduced by about 17% in monocytes (FIG. 1C) and by 19% in dendritic cells (FIG. 1D). Again, the reduction observed in the presence of MT8 is statistically significant. […] Also, in the latter case the reduction is statistically significant.
# [2] = test system: human dendritic cells stimulated with LPS; assay: Production of IL-1β, TNF-α and IL-6 in human monocytes-derived dendritic cells stimulated with LPS (Luminex multiplex assay); settings: 50 ng/ml LPS, MT8 10 or 30 µM, 18 hours
# Protocol: as §1
# ADAR1 = assay: Activation of the homodimeric complex of ADAR1 in HEK-293 TrkA cells (immunoprecipitation, Western Blot, densitometry); settings: serum-free 18 hours, 10 µM MT8, 60 minutes, FIG. 2
# Protocol: In order to study the effect of the MT8 compound on the ADAR1 enzyme, HEK-293 TrkA cells were cultured in serum-free medium for 18 hours and incubated with or without 10 µM of MT8 for another 60 minutes. The cells were then lysed in RIPA buffer (50 mM Tris-HCI, pH 7.4; 150 mM NaCl; 2 mM EDTA; 1 mM NaF; 1 mM sodium orthovanadate, 1% NP-40) and the proteins immunoprecipitated with Anti-ADAR1 antibody and subjected to biochemical analysis by Western Blot. Briefly, 500 µg of total protein was immunoprecipitated using a specific Anti-ADAR1 antibody. The immunoprecipitated product was loaded onto polyacrylamide gel and transferred onto the PVDF membrane. The membrane was then incubated with specific anti-ADAR1 antibodies for signal detection. The analysis allowed to highlight the presence of homodimeric complexes ADAR1/ADAR1 and of the monomeric forms of ADAR1 p150 and p110. The quantitative determination of the homodimer complex of ADAR1, performed by densitometry, was expressed as the ratio between the density of the band of the homodimer ADAR1/ADAR1 and that of the monomer ADAR1 p110.
# miR-101 [3] = assay: Expression of miR-101 in human monocytes stimulated with LPS (Real-time PCR)
# Protocol: In order to study the effect of MT8 on the activity of miR-101 in the pro-inflammatory setting, human monocytes isolated from buffy coat were stimulated with 1 µg/ml of LPS in the presence or absence of MT8 at the final concentration of 1 0 µM. After 60 minutes, the cells were lysed in TRIzol for the extraction of total RNA, which was then used for the quantification of miR-101 by Real-time PCR. […] The quantitative determination was performed using the 5 s ribosomal RNA gene as housekeeping and the relative increase calculated applying the 2^-ΔCt method.
# miR-101 [4] = assay: miR-101 expression levels in HEK-293 TrkA cells following ADAR1 knock-down (Real-time PCR); settings: 10 µM MT8, 60 minutes, FIG. 4
# Protocol: In order to study the effect of MT8 on miR-101 regulatory mechanisms under metabolic stress conditions, HEK-293 TrkA cells were transfected with ADAR1-specific siRNA or control siRNA (scrambled) at the final concentration of 50 nM. After 48 hours, the cells were incubated in serum-free medium for 18 hours and stimulated with MT8 at a concentration of 10 µM for a further 60 minutes. The cells were lysed with TRIzol for the extraction of total RNA, used for the assay of miR-101 by Real Time PCR. The quantitative determination of miR-101 was performed using the 5 s ribosomal RNA gene as the housekeeping gene and the relative increase calculated applying the 2^-ΔCt method.
structure (smiles),measurement,setting,value
"O=C(O)[C@H]1O[C@H]2O[C@@H]1C(=O)N(Cc1ccccc1)[C@@H]2Cc1ccccc1 [MT8, (1S, 4R, 5R, 7S) -3,4-dibenzyl-2-oxo-6,8-dioxa-3-azabicyclo[3.2.1]octane-7-carboxylic acid L-lysine Salt]",reduction of IL-1β production,[1]; FIG. 1A,about 17%
same,reduction of TNF-α production,[1]; FIG. 1C,about 17%
same,reduction of IL-6 production,[1]; FIG. 1E,about 70%
same,reduction of IL-1β production,[2]; FIG. 1B,over 50%
same,reduction of TNF-α production,[2]; FIG. 1D,19%
same,reduction of IL-6 production,[2]; FIG. 1F,about 65%
same,"homodimeric (active) form of ADAR1, ratio homodimer ADAR1/ADAR1 to monomer ADAR1 p110, compared to untreated cells",ADAR1,high increase
same,time of exposure until decrease of miR-101,miR-101 [3]; cellular and tissue systems exposed to MT8,≤ 1 h
same,miR-101 expression level compared to monocytes treated with LPS alone,"miR-101 [3]; human monocytes, 1 µg/ml LPS, MT8 1 0 µM, 60 minutes, FIG. 3",strong decrease
same,ability to decrease miR-101 expression in cells transfected with specific siRNA for ADAR1,miR-101 [4]; ADAR1-specific siRNA 50 nM,not
same,miR-101 expression level in scrambled siRNA-transfected cells,miR-101 [4]; control (scrambled) siRNA 50 nM,marked decrease
